Data from PubChem BioAssay (NCI).
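Where inhibition never reached the appropriate level, the endpoint shown equals the highest concentration tested. Otherwise, values were interpolated linearly from a five-concentration, 48-hour dose response in 96-well plates. GI50 = concentration required for 50% inhibition of growth. TGI: concentration producing complete growth inhibition.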

Experiments:
Test in all cases: NCI anticancer screen, dose series, 48 h
[1] = test system: SK-MEL-5 melanoma
[2] = test system: 786-0 renal
[3] = test system: M14 melanoma
[4] = test system: NCI-H460 lung
[5] = test system: HS 578T breast
[6] = test system: UACC-257 melanoma
[7] = test system: BT-549 breast
[8] = test system: RXF 393 renal
[9] = test system: HT29 colon
[10] = test system: HL-60(TB) leukemia
[11] = test system: SK-OV-3 ovarian
[12] = test system: SF-268 CNS
[13] = test system: LOX IMVI melanoma
[14] = test system: K-562 leukemia
[15] = test system: SK-MEL-2 melanoma
[16] = test system: TK-10 renal
[17] = test system: NCI-H23 lung
[18] = test system: HOP-62 NSCLC
[19] = test system: CCRF-CEM leukemia
[20] = test system: EKVX NSCLC
[21] = test system: KM12 colon
[22] = test system: HCT-15 colon
[23] = test system: U251 CNS
[24] = test system: NCI-H226 lung
[25] = test system: SF-295 CNS
[26] = test system: SN12C renal
[27] = test system: MCF7 breast
[28] = test system: UO-31 renal
[29] = test system: IGROV1 ovarian
[30] = test system: MALME-3M melanoma
[31] = test system: HCT-116 colon
[32] = test system: HCC-2998 colon
[33] = test system: SF-539 CNS
[34] = test system: NCI-H522 lung
[35] = test system: SK-MEL-28 melanoma
[36] = test system: CAKI-1 renal
[37] = test system: OVCAR-8 ovarian
[38] = test system: SNB-19 CNS
[39] = test system: MOLT-4 leukemia
[40] = test system: SW-620 colon
[41] = test system: OVCAR-4 ovarian
[42] = test system: DU-145 prostate
[43] = test system: UACC-62 melanoma
[44] = test system: HOP-92 NSCLC
[45] = test system: MDA-MB-435
[46] = test system: COLO 205 colon
[47] = test system: MDA-MB-231 breast
[48] = test system: A498 renal
[49] = test system: SNB-75 CNS
[50] = test system: PC-3 prostate
[51] = test system: ACHN renal
[52] = test system: RPMI-8226 leukemia
[53] = test system: OVCAR-5 ovarian
[54] = test system: A549 NSCLC
[55] = test system: OVCAR-3 ovarian
[56] = test system: NCI/ADR-RES ovarian
[57] = test system: T-47D breast

`C[N+](C)(CCCCCC[N+](C)(C)CCCN1C(=O)c2cc3ccccc3cc2C1=O)CCCN1C(=O)c2ccccc2C1=O` was tested, and the GI50 [1] was over 37.5 µM, the TGI [1] was over 37.5 µM and the GI50 [2] was over 37.5 µM. For the same molecule, the TGI [2] was over 37.5 µM, the GI50 [3] was over 37.5 µM and the TGI [3] was over 37.5 µM. The GI50 [4] was over 37.5 µM, the TGI [4] was over 37.5 µM and the GI50 [5] was over 37.5 µM. For the same molecule, the TGI [5] was over 37.5 µM, the GI50 [6] was over 37.5 µM and the TGI [6] was over 37.5 µM. The GI50 [7] was over 37.5 µM, the TGI [7] was over 37.5 µM and the GI50 [8] was over 37.5 µM. It also gave a TGI [8] of over 37.5 µM, a GI50 [9] of over 37.5 µM and a TGI [9] of over 37.5 µM. It also gave a GI50 [10] of over 37.5 µM, a TGI [10] of over 37.5 µM and a GI50 [11] of over 37.5 µM. For the same molecule, the TGI [11] was over 37.5 µM, the GI50 [12] was over 37.5 µM and the TGI [12] was over 37.5 µM. The GI50 [13] was over 37.5 µM, the TGI [13] was over 37.5 µM and the GI50 [14] was over 37.5 µM. The TGI [14] was over 37.5 µM, the GI50 [15] was over 37.5 µM and the TGI [15] was over 37.5 µM. The GI50 [16] was over 37.5 µM, the TGI [16] was over 37.5 µM and the GI50 [17] was over 37.5 µM. The TGI [17] was over 37.5 µM, the GI50 [18] was over 37.5 µM and the TGI [18] was over 37.5 µM. It also gave a GI50 [19] of over 37.5 µM, a TGI [19] of over 37.5 µM and a GI50 [20] of over 37.5 µM. It also gave a TGI [20] of over 37.5 µM, a GI50 [21] of over 37.5 µM and a TGI [21] of over 37.5 µM. It also gave a GI50 [22] of over 37.5 µM, a TGI [22] of over 37.5 µM and a GI50 [23] of over 37.5 µM. It also gave a TGI [23] of over 37.5 µM, a GI50 [24] of over 37.5 µM and a TGI [24] of over 37.5 µM. The GI50 [25] was over 37.5 µM, the TGI [25] was over 37.5 µM and the GI50 [26] was over 37.5 µM. For the same molecule, the TGI [26] was over 37.5 µM, the GI50 [27] was over 37.5 µM and the TGI [27] was over 37.5 µM. It also gave a GI50 [28] of over 37.5 µM, a TGI [28] of over 37.5 µM and a GI50 [29] of over 37.5 µM. For the same molecule, the TGI [29] was over 37.5 µM, the GI50 [30] was over 37.5 µM and the TGI [30] was over 37.5 µM. The GI50 [31] was over 37.5 µM, the TGI [31] was over 37.5 µM and the GI50 [32] was over 37.5 µM. For the same molecule, the TGI [32] was over 37.5 µM, the GI50 [33] was over 37.5 µM and the TGI [33] was over 37.5 µM. It also gave a GI50 [34] of over 37.5 µM, a TGI [34] of over 37.5 µM and a GI50 [35] of over 37.5 µM. It also gave a TGI [35] of over 37.5 µM, a GI50 [36] of over 37.5 µM and a TGI [36] of over 37.5 µM. For the same molecule, the GI50 [37] was over 37.5 µM, the TGI [37] was over 37.5 µM and the GI50 [38] was over 37.5 µM. It also gave a TGI [38] of over 37.5 µM, a GI50 [39] of over 37.5 µM and a TGI [39] of over 37.5 µM. For the same molecule, the GI50 [40] was over 37.5 µM, the TGI [40] was over 37.5 µM and the GI50 [41] was over 37.5 µM. It also gave a TGI [41] of over 37.5 µM, a GI50 [42] of over 37.5 µM and a TGI [42] of over 37.5 µM. It also gave a GI50 [43] of over 37.5 µM, a TGI [43] of over 37.5 µM and a GI50 [44] of over 37.5 µM. The TGI [44] was over 37.5 µM, the GI50 [45] was over 37.5 µM and the TGI [45] was over 37.5 µM. For the same molecule, the GI50 [46] was over 37.5 µM, the TGI [46] was over 37.5 µM and the GI50 [47] was over 37.5 µM. It also gave a TGI [47] of over 37.5 µM, a GI50 [48] of over 37.5 µM and a TGI [48] of over 37.5 µM. The GI50 [49] was over 37.5 µM, the TGI [49] was over 37.5 µM and the GI50 [50] was over 37.5 µM. It also gave a TGI [50] of over 37.5 µM, a GI50 [51] of over 37.5 µM and a TGI [51] of over 37.5 µM. For the same molecule, the GI50 [52] was over 37.5 µM, the TGI [52] was over 37.5 µM and the GI50 [53] was over 37.5 µM. The TGI [53] was over 37.5 µM, the GI50 [54] was over 37.5 µM and the TGI [54] was over 37.5 µM. For the same molecule, the GI50 [55] was over 37.5 µM, the TGI [55] was over 37.5 µM and the GI50 [56] was over 37.5 µM. The TGI [56] was over 37.5 µM, the GI50 [57] was over 37.5 µM and the TGI [57] was over 37.5 µM.
